# Measurements reported in patent US10774064B2 (Cadent Therapeutics, Inc., priority 2016, dated 2020).
# Biological target: T1, small-conductance Ca2+-activated K+ channels (SK channels, subtype 2) (Homo sapiens, UniProt Q9H2S1)
# T1 construct: expressed in transfected cells; host or cells: HEK293
# Assay: whole-cell patch-clamp of ionic current through SK2 channels in HEK293 cells (SC100)
# Assay type: cell-based
# Details: concentration that increases the basal current by 100%; HEK293 cells expressing SK2 channels
# Summary of the method: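 SC100, the concentration doubling basal current (a 100% increase), was taken from SK2 currents recorded by whole-cell patch-clamp in SK2-expressing HEK293 cells.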
row,SC100,Structure (SMILES)
1,+++ (+++ means <200 nM),"Cc1cc(C)n(-c2nc(NC3CCC(F)(F)CC3)cc(OCc3cnnn3C)n2)n1 [Compound 189, N-(4,4-difluorocyclohexyl)-2-(3,5-dimethyl-1H-pyrazol-1-yl)-6-((1-methyl-1H-1,2,3-triazol-5-yl)methoxy)pyrimidin-4-amine]"
2,+ (+ means >1 uM),"Cc1cc(NC2CCC(F)(F)CC2)nc(-n2ccc(C#N)n2)n1 [Compound 212, 1-(4-((4,4-difluorocyclohexyl)amino)-6-methylpyrimidin-2-yl)-1H-pyrazole-3-carbonitrile]"
3,++ (++ means 200 nM-1000 nM),"Cc1cc(NC2CCC(F)(F)CC2)nc(-n2ccc(C(C)C)n2)n1 [Compound 218, N-(4,4-difluorocyclohexyl)-2-(3-isopropyl-1H-pyrazol-1-yl)-6-methylpyrimidin-4-amine]"
4,++ (++ means 200 nM-1000 nM),"Cc1cc(NC2CCC(F)(F)CC2)nc(-c2nc(C)cs2)n1 [Compound 231, N-(4,4-difluorocyclohexyl)-6-methyl-2-(4-methylthiazol-2-yl)pyrimidin-4-amine]"
5,+ (+ means >1 uM),"Cc1cc(C)n(-c2cc(N[C@H]3CCN(C)C3=O)cc(NC3CCC(F)(F)CC3)n2)n1 (single isomer, unassigned) [Compound 138, (+)-3-((2-((4,4-difluorocyclohexyl)amino)-6-(3,5-dimethyl-1H-pyrazol-1-yl)pyridin-4-yl)amino)-1-methylpyrrolidin-2-one]"
6,++ (++ means 200 nM-1000 nM),"Cc1cc(C)n(-c2cc(CO)cc(NC3CCC(F)(F)CC3)n2)n1 [Compound 185, (2-((4,4-difluorocyclohexyl)amino)-6-(3,5-dimethyl-1H-pyrazol-1-yl)pyridin-4-yl)methanol]"
7,++ (++ means 200 nM-1000 nM),"Cc1cc(C)n(-c2cc(-n3cccn3)cc(NC3CCC(F)(F)CC3)n2)n1 [Compound 127, N-(4,4-difluorocyclohexyl)-6-(3,5-dimethyl-1H-pyrazol-1-yl)-4-(1H-pyrazol-1-yl)pyridin-2-amine]"
8,++ (++ means 200 nM-1000 nM),"FCc1csc(-c2nc(NC3CCC(F)(F)CC3)cc(N3CCOCC3)n2)n1 [Compound 336, N-(4,4-difluorocyclohexyl)-2-(4-(fluoromethyl)thiazol-2-yl)-6-morpholinopyrimidin-4-amine]"
9,+ (+ means >1 uM),"CCc1cc(C)nn1-c1nc(C)cc(NC2CCC(F)(F)CC2)n1 [Compound 260, N-(4,4-difluorocyclohexyl)-2-(5-ethyl-3-methyl-1H-pyrazol-1-yl)-6-methylpyrimidin-4-amine]"

# Same assay, conditions: whole-cell patch-clamp, HEK293 cells expressing SK2 channels; concentration that increases the basal current by 100%
row,Structure (SMILES),SC100 (μM)
1,"Cc1ccn(-c2cc3ccccc3c(NC3CCC(F)(F)CC3)n2)n1 [IN11039-023-P1, N-(4,4-difluorocyclohexyl)-3-(3-methyl-1H-pyrazol-1-yl)isoquinolin-1-amine]",+ (+ means >1 uM)
2,COCCOc1cc(NC2CCC(F)(F)CC2)nc(-n2ccc(C)n2)n1 [IN10966-093-P1],+ (+ means >1 uM)
3,"Cc1ccn(-c2nc(NC3CCC(F)(F)CC3)cc(C(C)S(C)(=O)=O)n2)n1 (stereo not drawn) [IN10973-060-P1, N-(4,4-difluorocyclohexyl)-2-(3-methyl-1H-pyrazol-1-yl)-6-(1-(methylsulfonyl)ethyl)pyrimidin-4-amine]",+ (+ means >1 uM)
4,Cc1ccn(-c2nc(NC3CCC(F)(F)CC3)cc(OCc3ncco3)n2)n1 [IN11053-022-P1],+ (+ means >1 uM)
5,"Cc1ccc(-c2nc(NC3CCC(F)(F)CC3)cc(N3CCOCC3)n2)n1C [IN10971-059-P1, N-(4,4-difluorocyclohexyl)-2-(1,5-dimethyl-1H-pyrrol-2-yl)-6-morpholino pyrimidin-4-amine]",+ (+ means >1 uM)
6,"COc1cnc(-c2nc(C)cs2)nc1NC1CCC(F)(F)CC1 [IN11125-014-P1, N-(4,4-difluorocyclohexyl)-5-methoxy-2-(4-methylthiazol-2-yl)pyrimidin-4-amine]",++ (++ means 200 nM-1000 nM)
7,"OCc1cc(NC2CCC(F)(F)CC2)nc(-n2ccc(C(F)(F)F)n2)c1 [IN11133-097-P1, (2-((4,4-difluorocyclohexyl)amino)-6-(3-(trifluoromethyl)-1H-pyrazol-1-yl)pyridin-4-yl) methanol]",++ (++ means 200 nM-1000 nM)
8,"COC(=O)NC(C)c1cc(NC2CCC(F)(F)CC2)nc(-n2ccc(C)n2)c1 (stereo not drawn) [IN11054-005-P1, methyl (1-(2-((4,4-difluorocyclohexyl)amino)-6-(3-methyl-1H-pyrazol-1-yl)pyridin-4-yl)ethyl) carbamate]",+ (+ means >1 uM)
9,"Cc1ccnn1-c1cc(C#N)cc(NC2CCC(F)(F)CC2)n1 [IN10967-061-P1, 2-((4,4-difluorocyclohexyl)amino)-6-(5-methyl-1H-pyrazol-1-yl)isonicotinonitrile]",+ (+ means >1 uM)
10,"Cc1csc(-c2cc([S+](C)[O-])cc(NC3CCC(F)(F)CC3)n2)n1 (stereo not drawn) [IN11147-031-P1, N-(4,4-difluorocyclohexyl)-4-(methylsulfinyl)-6-(4-methylthiazol-2-yl)pyridin-2-amine]",++ (++ means 200 nM-1000 nM)
11,CCOc1cc(NC2CCC(F)(F)CC2)nc(-n2ccc(C)n2)n1 [IN11063-005-P1],+ (+ means >1 uM)
12,Cc1csc(-c2cc(N3CC4(COC4)C3)cc(NC3CCC(F)(F)CC3)n2)n1 [NSSy5675],+++ (+++ means <200 nM)
13,Cc1csc(-c2nc(NC3CCC(F)(F)CC3)cc(OC3CCOCC3)n2)n1 [IN11079-007-P1],+ (+ means >1 uM)
14,COc1cc(NC2CCC3(CC2)COC3)nc(-c2nc(C)cs2)n1 [IN11104-084-P2],+ (+ means >1 uM)
15,CCOc1cc(NC2CCC(F)(F)CC2)nc(-c2nc(C)cs2)n1 [IN11055-015-P1],+ (+ means >1 uM)
16,CCC1CN(c2cc(NC3CCC(F)(F)CC3)nc(-c3nc(C)cs3)n2)CCO1 (stereo not drawn) [IN10880-018-P1],++ (++ means 200 nM-1000 nM)
17,"Cc1cc(NC2CCC(F)(F)CC2)cc(-c2nc(C)cs2)c1 [IN11063-086-P2, N-(4,4-difluorocyclohexyl)-3-methyl-5-(4-methylthiazol-2-yl) aniline]",+ (+ means >1 uM)
18,COCC1CN(c2cc(NC3CCC(F)(F)CC3)nc(-c3nc(C)cs3)c2)CCO1 (stereo not drawn) [NSSy5807],+++ (+++ means <200 nM)
19,"CCc1cc(NC2CCC(F)(F)CC2)nc(-n2ccc(C3CC3)n2)n1 [IN11137-072-P1, 2-(3-cyclopropyl-1H-pyrazol-1-yl)-N-(4,4-difluorocyclohexyl)-6-ethylpyrimidin-4-amine]",++ (++ means 200 nM-1000 nM)
20,Cc1csc(-c2nc(NC3CCC(F)(F)CC3)cc(N3CCCC(O)C3)n2)n1 (stereo not drawn) [IN10881-023-P2],++ (++ means 200 nM-1000 nM)
21,"CNC(=O)Oc1c(NC2CCC(F)(F)CC2)nc(-c2nc(C)cs2)[nH]c1=O [IN11125-006-P1, 4-((4,4-difluorocyclohexyl)amino)-6-hydroxy-2-(4-methylthiazol-2-yl)pyrimidin-5-yl methylcarbamate]",+ (+ means >1 uM)
22,COC(=O)N1CCCC(OCc2cc(NC3CCC(F)(F)CC3)nc(-n3ccc(C)n3)c2)C1 (stereo not drawn) [IN11067-004-P1],++ (++ means 200 nM-1000 nM)

# The remaining lines, values ahead:
row,SC100 (μM),Structure (SMILES)
1,+ (+ means >1 uM),Cc1ccn(-c2cc(N(C)C)nc(NC3CCC(F)(F)CC3)n2)n1 [NSSy6677]
2,+ (+ means >1 uM),"CO[C@@H](C)c1cc(-c2nc(C)cs2)nc(NC2CCC(F)(F)CC2)n1 [NSSy6729, (S)—N-(4,4-difluorocyclohexyl)-4-(1-methoxyethyl)-6-(4-methylthiazol-2-yl)pyrimidin-2-amine]"
3,+++ (+++ means <200 nM),"CC(=O)N1CC=C(c2cc(NC3CCC(F)(F)CC3)nc(-n3ccc(C4CC4)n3)n2)CC1 [IN11166-038-P1, 1-(4-(2-(3-cyclopropyl-1H-pyrazol-1-yl)-6-((4,4-difluorocyclohexyl)amino)pyrimidin-4-yl)-3,6-dihydropyridin-1(2H)-yl)ethan-1-one]"
4,+++ (+++ means <200 nM),COc1nn(-c2nc(NC3CCC(F)(F)CC3)cc(N3CCOCC3)n2)cc1F [IN11216-073-P1]
5,+ (+ means >1 uM),Cc1csc(-c2cc(N3CCOCC3)cc(OC3CCC(F)(F)CC3)n2)n1 [NSSy6285]
6,+ (+ means >1 uM),Fc1ccn(-c2cc(N3CCOCC3)nc(NC3CCC(F)(F)CC3)n2)n1 [NSSy6468]
7,+ (+ means >1 uM),"CC(C)(C)c1ccn(-c2nc(NC3CCC(F)(F)CC3)cc(N3CCOCC3)n2)n1 [IN11177-025-P1, 2-(3-(tert-butyl)-1H-pyrazol-1-yl)-N-(4,4-difluorocyclohexyl)-6-morpholinopyrimidin-4-amine]"
8,++ (++ means 200 nM-1000 nM),"Cc1csc(-c2nccc(NC3CCC(F)(F)CC3)n2)n1 [NSSy6056, N-(4,4-difluorocyclohexyl)-2-(4-methylthiazol-2-yl)pyrimidin-4-amine]"
9,+ (+ means >1 uM),"Cc1ccn(-c2cc(C(=O)O)nc(NC3CCC(F)(F)CC3)n2)n1 [NSSy6684, 2-((4,4-difluorocyclohexyl)amino)-6-(3-methyl-1H-pyrazol-1-yl)pyrimidine-4-carboxylic acid]"
10,+ (+ means >1 uM),"Cc1cc(CN2CCC(F)(F)CC2)cc(-c2nc(C)cs2)c1 [NSSy6044, 2-(3-((4,4-difluoropiperidin-1-yl)methyl)-5-methylphenyl)-4-methyl thiazole]"
11,++ (++ means 200 nM-1000 nM),Cc1ccn(-c2cc(COc3ncc(F)cn3)cc(NC3CCC(F)(F)CC3)n2)n1 [NSSy5861]
12,+ (+ means >1 uM),Cc1nsc(-c2nc(NC3CCC(F)(F)CC3)cc(N3CCOCC3)n2)n1 [NSSy5832]
13,+ (+ means >1 uM),COc1cc(-n2ccc(C)n2)nc(NC2CCC(F)(F)CC2)n1 [NSSy6574]
14,++ (++ means 200 nM-1000 nM),Cc1ccn(-c2nc(NCCO)cc(NC3CCC(F)(F)CC3)n2)n1 [IN11250-032-P1]
